In patent US8519154B2, “Method for treatment of bronchial asthma” (Council of Scientific & Industrial Research, priority 2011, dated 2013):

Assays:
mice [1] = test: Pentobarbitone induced sleeping time; type: in vivo; details: pentobarbitone 50 mg/kg (i.p) alone
Description: Compound I was administered to mice perorally. […] were administered with sodium pentobarbitone (50 mg/kg, ip). Sleeping time (No righting reflex) (in min) was determined for the control (untreated) and D8 treated animals [Montilla, M P., Cabo, J., Navarro, M C., Risco, S., Jimmenez R S., Aneires, J., The protective and curative action of Withania frutescens leaf extract against CCl4-induced hepatotoxicity. Phytother. Res. 4 (1990) 212-215].

mice [2] = test: Electric shock induced convulsions; type: in vivo, Swiss mice
Description: Convulsion were induced by a single electroshock (50 Hz in frequency, 0.5 ms pulse width, 50 mA current for 0.3 s) applied through bi-polar electrodes attached to the ear pinna on both side using a pulse generator (Ugo Basile, Italy). The convulsive activity (determined by loss of tonic extensor seizure) was recorded in control (untreated) and Compound I were treated (before electro-shock application) animals [Achliya, G S, Wadodkar, S G, Darle, A K., Evaluation of CNS activity of Bramhi Ghrita. Indian J. Pharmacol. 37 (2005) 33-36].
Anti-convulsant activity was measured by electric shock induced seizure. Five Swiss mice were used for one dose of drug. Convulsion were induced by a single electroshock (50 Hz in frequency, 0.5 ms pulse width, 50 mA current for 0.3 s) applied through bi-polar electrodes attached to the ear pinna on both side by a pulse generator (Ugo Basile, Italy) Test drug were administered orally 60 min before electroshock application, and convulsive activity was determined by loss of tonic extensor seizure.

PDE-4 = test: Phosphodiesterase 4 assay, [3H]cAMP SPA enzyme assay, enzyme preparation from rat heart; type: biochemical
Description: For phosphodiesterase (PDE-4) assay, enzyme preparations were performed from rat heart (Ko et al 2004, Biochemical Pharmacology 68:2087-2094). Heart was excised from anesthetized rat and transfer into normal saline solution. Heart weighing 687 mg was taken and homogenized in 2.5 volumes of homogenization buffer containing 20 mM Tris-Cl, 50 mM NaCl, 2 mM EDTA, 0.1 mM PMSF, […], protease inhibitors 1 μg/μl. The homogenate was centrifuged at 500×g for 5 minute at 4° C. Then sup was taken for further centrifuged at 40,000×g for 30 minute (ultra centrifugation). After centrifugation supernatant was collected for phosphodiesterase assay. Protein concentration was estimated and for each assay, 2.5 μg protein (PDE enzyme preparation) was used. All compounds tested for PDE 4 activity were dissolved in DMSO.
Phosphodiesterase 4 assay: Phosphodiesterase 4 assay was conducted with [^3H] cAMP SPA enzyme assay (GE Amersham, UK) using 2.5 μg enzyme preparation for each well. Into each well 60 μl water, 10 μl assay buffer supplied with the kit, 10 μl compound (inhibitor), 10 μl PDE enzyme or homogenizing buffer (blank) and […] radiolabel led cAMP ([^3H]cAMP, GE Amersham, UK) were added. To check activity of the enzyme without inhibitor (compound) 10 μl DMSO was added in place of inhibitor to a separate well. The reaction mixtures were incubated for […] at 30° C. The reaction was stopped by adding 50 μl SPA bead supplied with the kit. It was then mixed well and allowed to stand at room temperature for 20 min. Breakdown of cAMP in each tube was monitored by β counter. The reading in each tube was obtained in counts per minute (CPM). The reading of the blank tube (without enzyme) was subtracted from each tube to normalize the counts. The enzyme activity was calculated by considering the CPM reading without any inhibitor (compound) as 100.

With CCCC(C)C1(CC)C(=O)NC(=O)NC1=O (centres unmarked) [Pentobarbitone] as the compound, how does the “Sleeping Time (Minutes ± SEM)” value (mice [1]) read?
Its value is 75.6 ± 9.4 min.

Which “Convulsions Clonic” value (mice [2]; 30 mg/kg p.o.) does the source give for CCC1(c2ccccc2)C(=O)NC(=O)NC1=O [Phenobarbitone, reference compound] here?
Its value is 0/5.

What about the “Convulsions Tonic” value (mice [2]; 30 mg/kg p.o.) of the same compound?
Its value is 0/5.

What about the Mortality (mice [2]; 30 mg/kg p.o.) of the same compound?
Its Mortality is 0/5.

And the anti-convulsant activity (mice [2]; positive control)?
Its anti-convulsant activity is “significant anti-convulsant activity”.

With COc1cc(COC(C)=O)cc2c1[nH]c1ccccc12 [V] as the compound, how does the “% of Inhibition” value (PDE-4; 0.1 μg/ml) read?
Its value is 0%.

What about the “% of Inhibition” value (PDE-4; 1 μg/ml) of the same compound?
The value was 11.80%.

And the “% of Inhibition” value (PDE-4; 10 μg/ml)?
The value was 44.2%.
